Experimental data taken from patent publication US20040185110A1, “Formulations of low solubility bioactive agents and processes for making the same” (priority 2002, published 2004).

Assay: Solubility of Compound A
Format: physicochemical
Procedure: The present invention addresses the prior art issues of low bioavailability of certain drugs such as COX-2 selective inhibitors useful for the treatment of, for example, arthritis and rheumatic pain. […] Compound A, a COX-2 selective inhibitor, is a white to off-white odorless crystalline, anhydrous powder. At room temperature it is soluble in methylene chloride, and acetonitrile. […] The aqueous solubility of the drug is less than 2 µg/mL at 22 degrees Celsius at pH 6.2.

- solubility in methylene chloride, and acetonitrile (room temperature): soluble
- solubility in water (water): poorly soluble
SMILES: CS(=O)(=O)c1ccc(/C(=C2\CCOC2=O)c2ccc(Br)cc2)cc1 [Compound A, (Z)-3-[1-(4-bromophenyl)-1-(4-methylsulfonylphenyl)methylidine]-dihydrofuran-2-one]
